Laboratory results reported in paper PMC6010013, “Synthesis, physiochemical property and antimicrobial activity of novel quaternary ammonium salts” (Journal of Enzyme Inhibition and Medicinal Chemistry, 2017).
Counter-ions that a name gives are not always drawn.

System: not given
Settings: not given

First: C[N+](CCO)(CCO)CCCCCCCCCCSc1nc2ccccc2o1 (as salt: bromide) [Compound 10c]
Second: C[N+](CCO)(CCO)CCCCCCCCCCCCSc1nc2ccccc2o1 (as salt: bromide) [Compound 10d]
The melting point of the first is higher: 128 to 129 °C for the first, 125 to 127 °C for the second.

First: C[N+](CCO)(CCO)CCCCCCCCCCCCSc1nnc(-c2ccc(F)cc2)o1 (as salt: bromide) [Compound 5d]
Second: C[N+](CCO)(CCO)CCCCCCCCCCSc1nnc(-c2ccc(F)cc2)o1 (as salt: bromide) [Compound 5c]
The melting point of the first is lower: 98 to 100 °C for the first, 102 to 103 °C for the second.

First: Cc1nnc(SCCCCCCCCCC[N+](C)(CCO)CCO)s1 (as salt: bromide) [Compound 16c]
Second: Cc1nnc(SCCCCCCCCCCCC[N+](C)(CCO)CCO)s1 (as salt: bromide) [Compound 16d]
The melting point of the first is lower: 77 to 78 °C for the first, 95 to 96 °C for the second.

First: C[N+](CCO)(CCO)CCCCCCCCSc1nc2ccccc2o1 (as salt: bromide) [Compound 10b]
Second: C[N+](CCO)(CCO)CCCCCCCCSc1nc2ccccc2s1 (as salt: bromide) [Compound 13b]
The melting point of the first is higher: 125 to 127 °C for the first, 87 to 89 °C for the second.

Compared with `CC(C)(C)c1ccc(-c2nnc(SCCCCCC[N+](C)(CCO)CCO)o2)cc1` (as salt: bromide) [Compound 7a], `CC(C)(C)c1ccc(-c2nnc(SCCCCCCCC[N+](C)(CCO)CCO)o2)cc1` (as salt: bromide) [Compound 7b] is lower in melting point: 78 to 80 °C for the first, 71 to 72 °C for the second.

First: C[N+](CCO)(CCO)CCCCCCCCCCCCSc1nc2ccccc2s1 (as salt: bromide) [Compound 13d]
Second: C[N+](CCO)(CCO)CCCCCCCCCCSc1nc2ccccc2s1 (as salt: bromide) [Compound 13c]
The melting point of the first is lower: 106 to 107 °C for the first, 111 to 112 °C for the second.

Compared with `C[N+](CCO)(CCO)CCCCCCSc1nnc(-c2ccc(C(F)(F)F)cc2)o1` (as salt: bromide) [Compound 6a], `C[N+](CCO)(CCO)CCCCCCCCSc1nnc(-c2ccc(C(F)(F)F)cc2)o1` (as salt: bromide) [Compound 6b] is lower in melting point: 93 to 94 °C for the first, 78 to 80 °C for the second.

Compared with `C[N+](CCO)(CCO)CCCCCCSc1nc2ccccc2s1` (as salt: bromide) [Compound 13a], `Cc1nnc(SCCCCCC[N+](C)(CCO)CCO)s1` (as salt: bromide) [Compound 16a] is lower in melting point: 142 to 143 °C for the first, 56 to 57 °C for the second.

First: C[N+](CCO)(CCO)CCCCCCSc1nnc(-c2ccc(F)cc2)o1 (as salt: bromide) [Compound 5a]
Second: C[N+](CCO)(CCO)CCCCCCCCSc1nnc(-c2ccc(F)cc2)o1 (as salt: bromide) [Compound 5b]
The melting point of the first is lower: 74 to 76 °C for the first, 81 to 82 °C for the second.

First: CC(C)(C)c1ccc(-c2nnc(SCCCCCCCCCC[N+](C)(CCO)CCO)o2)cc1 (as salt: bromide) [Compound 7c]
Second: Cc1nnc(SCCCCCCCC[N+](C)(CCO)CCO)s1 (as salt: bromide) [Compound 16b]
The melting point of the first is higher: 78 to 80 °C for the first, 74 to 75 °C for the second.

System: normal cell lines
Parameters: method as in PMID 25215430
Settings: cell line not given; cited from earlier work

For `CCCCCCCCCCCC[N+](C)(CCO)CCO` [Compound C12QAS, N-methyl-N-dodecyl-N,N-bis(2-hydroxyethyl) ammonium bromides], the “Cytotoxicity IC50” value is listed as “ca. 4.00 μg/mL”.
